Earlier results, collected in patent US20140316333A1, “DISSOLVING SOLID SOLUTION PERFORATOR PATCH FOR MIGRAINE TREATMENT” (priority 2011, published 2014).

Conditions: oral dosage

CN1C[C@H](C(=O)N[C@]2(C)O[C@@]3(O)[C@@H]4CCCN4C(=O)[C@H](Cc4ccccc4)N3C2=O)C[C@@H]2c3cccc4[nH]cc(c34)C[C@H]21 [DHE, dihydroergotamine]
time to have efficacy for reducing migraine headache: 2 to 3 h
active unchanged drug that reaches the blood stream (about 20-30 mg, estimated): 2-10%
